According to BindingDB's records for doi:10.1074/jbc.M113.519421 (University of Michigan, 2014):

target: T1, Serine/threonine-protein phosphatase 5 (Homo sapiens, UniProt P53041); assay: Fluorescence Polarization Assay; conditions: pH 7.4; 25 °C
T1 sequence (P53041 whole entry): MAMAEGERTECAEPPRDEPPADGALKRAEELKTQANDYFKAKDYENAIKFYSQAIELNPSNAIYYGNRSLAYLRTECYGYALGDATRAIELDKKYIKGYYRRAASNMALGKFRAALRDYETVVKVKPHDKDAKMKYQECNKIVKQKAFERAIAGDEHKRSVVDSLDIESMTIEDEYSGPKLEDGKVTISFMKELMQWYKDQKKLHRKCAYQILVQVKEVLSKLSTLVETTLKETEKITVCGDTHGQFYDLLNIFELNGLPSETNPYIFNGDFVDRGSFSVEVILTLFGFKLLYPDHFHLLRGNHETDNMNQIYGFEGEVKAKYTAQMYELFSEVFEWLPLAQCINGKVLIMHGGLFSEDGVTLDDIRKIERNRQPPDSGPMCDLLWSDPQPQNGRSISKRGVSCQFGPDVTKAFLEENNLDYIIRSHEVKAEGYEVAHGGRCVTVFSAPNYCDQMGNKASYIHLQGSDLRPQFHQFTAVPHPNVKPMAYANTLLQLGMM
Description: All fluorescence polarization experiments were conducted in 384-well, black, low volume, round-bottomed plates (Corning) using a BioTeck Synergy 2 plate reader (Winooski, VT). For binding experiments, to each well was added increasing amounts of protein and the 5-carboxyfluorescein-labeled Hsp70/90 C-terminal probe/tracer (20 nM). […] The plate was allowed to incubate at room temperature for 5 min toreach equilibrium. […] An equilibrium binding isotherm was constructed by plotting the fluorescence polarization reading as a function of the protein concentration at a fixed concentration of tracer (20 nM).

Compound	Kd
H-DVEEM-OH [DVEEM]	> 10000 nM
CC[C@H](C)[C@H](NC(=O)[C@@H](NC(=O)[C@@H]1CCCN1C(=O)CNC(=O)[C@H](CO)NC(=O)[C@@H](N)CO)[C@@H](C)O)C(=O)N[C@@H](CCC(=O)O)C(=O)N[C@@H](CCC(=O)O)C(=O)N[C@H](C(=O)N[C@@H](CC(=O)O)C(=O)O)C(C)C	1060 nM
CC[C@H](C)[C@H](N)C(=O)N[C@@H](CCC(=O)O)C(=O)N[C@@H](CCC(=O)O)C(=O)N[C@H](C(=O)N[C@@H](CC(=O)O)C(=O)O)C(C)C [IEEVD]	426 nM

More lines, in order of falling Kd, values ahead:

Kd	Compound
420 nM	H-DDTSRIEEVD-OH
133 nM	CSCC[C@H](NC(=O)[C@@H](NC(=O)[C@@H]1CCCN1C(=O)CNC(=O)[C@H](CO)NC(=O)CN)[C@@H](C)O)C(=O)N[C@@H](CCC(=O)O)C(=O)N[C@@H](CCC(=O)O)C(=O)N[C@H](C(=O)N[C@@H](CC(=O)O)C(=O)O)C(C)C
77 nM	CSCC[C@H](NC(=O)[C@H](CCCNC(=N)N)NC(=O)[C@H](CO)NC(=O)[C@H](C)NC(=O)[C@H](CC(=O)O)NC(=O)[C@@H](N)CCC(=O)O)C(=O)N[C@@H](CCC(=O)O)C(=O)N[C@@H](CCC(=O)O)C(=O)N[C@H](C(=O)N[C@@H](CC(=O)O)C(=O)O)C(C)C
